Data as given in US20030005484A1, “Microbiocidal and pesticidal aromatic aldehydes” (ProGuard, Inc., priority 1994, published 2003).

Assays:
[1] = tested on: black bean aphid, Tetranychus urticae; assay: aphid Petri dish bioassay; conditions: for mortality: three hours contact
Procedure: (§1) Activity of cinnamic aldehyde and/or coniferyl aldehyde against black bean aphid, Tetranychus urticae, and silverleaf white fly, Bemisia argentifolii was determined as follows:
(§2) Petri dishes (60 mm) were treated with cinnamic aldehyde at 10-25,000 ppm in 2% Tween 80 and 6% NaHCO3 dissolved in water, and the dishes allowed to air dry. Twenty adult aphids (Tetranychus urticae) were put in each dish, (replicate 10 times). The mortality after three hours in contact with a treated plate was compared to that of aphids in petri dishes treated only with diluent. Malathion (250 ppm) was used as a positive control.

[2] = tested on: silverleaf white fly, Bemisia argentifolii; assay: silver leaf white fly Petri dish bioassay
Procedure: as §1
as §2, with “and” for “and the dishes”, “silver leaf white fly” for “aphids (Tetranychus urticae)”, “plate,” for “plate”, “silver leaf white fly” for “aphids”, “at 250 ppm” for “(250 ppm)”

Root Knot Nematode = assay: vineyard grape vines, nematode infestation: root knot; type: in vivo
Procedure: (§3) The subject formulations were tested for ability to reduce grape vine infestation by root knot, ring, stubby root, and roll lesion nematodes. Grape vines (Harmony rootstock) in a vinyard were treated with 1000 ppm or 3000 ppm cinnamaldehyde in 2% Tween 80, the commercial anti-nematode agent Nemacur, or a formulation blank. The extent of nematode infestation was determined at the time of treatment and at 30 and 60 days post-treatment.

Ring Nematode = assay: vineyard grape vines, nematode infestation: ring; type: in vivo
Procedure: as §3

Roll Lesion nematode = assay: vineyard grape vines, nematode infestation: roll lesion; type: in vivo
Procedure: as §3

[3] = tested on: western flower thrips, Frankliniella occidentalis; assay: western flower thrips dose-mortality on miniature rose foliage; type: in vivo
Procedure: Dose-mortality response of CNMA formula against western flower thrips, Frankliniella occidentalis, was evaluated. Three different dose levels of the CNMA formulation were tested in comparison with a water only control. Tests were conducted using 500 ml ventilated paper cartons as experimental areas containing miniature rose foliage with approximately 30 adult F. occidentalis in each. An F. occidentalis colony (U.C. Davis, Department of Entomology) maintained on chrysanthemums and miniature rose was the source of thrips for the study. Three active ingredient dose levels (0.1, 0.3, and 1.0%) were sprayed onto the plants using a laboratory spray tower calibrated to spray the field equivalent of 113 L per acre at the desired dosage. Four replicates (4 observations per treatment) were compared for each dosage. For each test, treatment cartons received the treatment and were maintained at room temperature. […] Table 20 presents the mean mortality treatment data.

powdery mildew = powdery mildew on Cabernet Sauvignon grapes; type: in vivo; conditions: for % CLUSTERS INFECTED-FIRST DAY / MEAN # OF BERRIES/CLUSTER INFECTED FIRST DAY: 2 days post treatment; for % CLUSTERS INFECTED-SECOND DAY / MEAN # OF BERRIES/CLUSTER INFECTED SECOND DAY: 10 days post-treatment
Procedure: The effect of 0.3% and 0.6% cinnamic aldehyde on powdery mildew on grapes was examined. A 3 acre block of Cabernet Sauvignon that was severely infested with powdery mildew (primarily on grape berries) was sprayed with either 0.3% or 0.6% cinnamic aldehyde using a 300 gal. Pul-Blast sprayer at 160 psi fitted with 10, D4 nozels using a #56 core. Approximately 1.25 acres were treated for each cinnamic aldehyde concentration. A 0.5 acre plot of control grape vines were sprayed with a tank mix at label rates of other commercially available pesticides (Abound, Provado, Kelthan, Silwet L-77 and a foliar nutrient spray( 10-12-0+2% zinc)) costing approximately $87.00/acre. For the two cinnamic aldehyde treatments and control plots, 2 rows per treatment were visually inspected for severe powdery mildew infections and marked with flagging tape. At least 10 locations were marked in each row inspected and defined sampling positions for determining efficacy of the treatments. Water sensitive cards were placed at the level of the cordon wire (where grape clusters are located) and were used to monitor spray coverage. Two and ten days subsequent to treatment, samples from two sides of each vine (to include variable powdery mildew incidence due to sun exposure) were examined for powdery mildew. […] 0.3% cinnamic aldehyde reduced powdery mildew infection of grapes to a level similar to the positive control while 0.6% cinnamic aldehyde reduced powdery mildew infection even more than the standard. Upon examination of the mean number of berries infected with powdery mildew, again, it was evident that both 0.3% and 0.6% cinnamic aldehyde reduced the extent of powdery mildew infection to levels that were to similar or less than the positive control respectively.

[4] = 2500 ppm and above in 2% Tween 80 and 6% NaHCO3, three hours contact with treated dish
[5] = 1000 ppm in 2% Tween 80, 30 days post-treatment
[6] = 1000 ppm in 2% Tween 80, 60 days post-treatment
[7] = 1000 ppm in 2% Tween 80, day 0 (time of treatment)
[8] = 3000 ppm in 2% Tween 80, 30 days post-treatment
[9] = 3000 ppm in 2% Tween 80, 60 days post-treatment
[10] = 3000 ppm in 2% Tween 80, day 0 (time of treatment)

O=C/C=C/c1ccccc1 [cinnamic aldehyde]
mortality ([1]; 10 ppm in 2% Tween 80 and 6% NaHCO3): 25%
mortality ([1]; 100 ppm in 2% Tween 80 and 6% NaHCO3): 50%
aphids killed [1, 4]: 100%
silver leaf white fly killed [2, 4]: 100%
mortality at 10 ppm ([2]; Bemisia argentifolii, 3 h): 25%
mortality at 100 ppm ([2]; Bemisia argentifolii, 3 h): 50%
Silver Leaf White Fly Mortality (Percent) ([2]; Cinnamic Aldehyde (20 g) with NaHCO3): 87.3%
Silver Leaf White Fly Mortality (Percent) ([2]; Cinnamic Aldehyde (20 g) with T80(2%) + NaHCO3 (6%)): 100%
Silver Leaf White Fly Mortality (Percent) ([2]; Cinnamic Aldehyde (20 g) with T80 (10 g)): 72.1%
Silver Leaf White Fly Mortality (Percent) ([2]; Cinnamic Aldehyde (20 g), no additive): 68.6%
Root Knot Nematode, nematodes per 250 cc soil (Root Knot Nematode; [5]): 872 per 250 cc soil
Root Knot, nematodes per gram root (Root Knot Nematode; [5]): 55.2 per gram root
Root Knot Nematode, nematodes per 250 cc soil (Root Knot Nematode; [6]): 204.5 per 250 cc soil
Root Knot, nematodes per gram root (Root Knot Nematode; [6]): 11.8 per gram root
Root Knot Nematode, nematodes per 250 cc soil (Root Knot Nematode; [7]): 498.8 per 250 cc soil
Root Knot, nematodes per gram root (Root Knot Nematode; [7]): 301.3 per gram root
Root Knot Nematode, nematodes per 250 cc soil (Root Knot Nematode; [8]): 700 per 250 cc soil
Root Knot, nematodes per gram root (Root Knot Nematode; [8]): 125.6 per gram root
Root Knot Nematode, nematodes per 250 cc soil (Root Knot Nematode; [9]): 269.8 per 250 cc soil
Root Knot Nematode, nematodes per 250 cc soil (Root Knot Nematode; [10]): 379.8 per 250 cc soil
Root Knot, nematodes per gram root (Root Knot Nematode; [10]): 24.4 per gram root
Ring Nematode, nematodes per 250 cc soil (Ring Nematode; [5]): 171.2 per 250 cc soil
Ring Nematode, nematodes per 250 cc soil (Ring Nematode; [6]): 1168 per 250 cc soil
Ring Nematode, nematodes per 250 cc soil (Ring Nematode; [7]): 47.2 per 250 cc soil
Ring Nematode, nematodes per 250 cc soil (Ring Nematode; [8]): 322.8 per 250 cc soil
Ring Nematode, nematodes per 250 cc soil (Ring Nematode; [9]): 1127 per 250 cc soil
Ring Nematode, nematodes per 250 cc soil (Ring Nematode; [10]): 540.2 per 250 cc soil
Roll Lesion, nematodes per gram root (Roll Lesion nematode; [5]): 2.7 per gram root
Roll Lesion, nematodes per gram root (Roll Lesion nematode; [6]): 0 per gram root
Roll Lesion, nematodes per gram root (Roll Lesion nematode; [7]): 2.9 per gram root
Roll Lesion, nematodes per gram root (Roll Lesion nematode; [8]): 0.56 per gram root
Roll Lesion, nematodes per gram root (Roll Lesion nematode; [10]): 1.0 per gram root
Mean Thrip Mortality ([3]; 0.1% CNMA (C), sampling time 1615): 0.13
Mean Thrip Mortality ([3]; 0.1% CNMA (C), sampling time 1645): 0.17
Mean Thrip Mortality ([3]; 0.1% CNMA (C), sampling time 1715): 0.17
Mean Thrip Mortality ([3]; 0.1% CNMA (C), sampling time 1845): 0.19
Mean Thrip Mortality ([3]; 0.1% CNMA (C), sampling time 2215): 0.25
Mean Thrip Mortality ([3]; 0.3% CNMA (B), sampling time 1615): 0.26
Mean Thrip Mortality ([3]; 0.3% CNMA (B), sampling time 1645): 0.28
Mean Thrip Mortality ([3]; 0.3% CNMA (B), sampling time 1715): 0.28
Mean Thrip Mortality ([3]; 0.3% CNMA (B), sampling time 1845): 0.37
Mean Thrip Mortality ([3]; 0.3% CNMA (B), sampling time 2215): 0.40
Mean Thrip Mortality ([3]; 1.0% CNMA (A), sampling time 1615): 0.79
Mean Thrip Mortality ([3]; 1.0% CNMA (A), sampling time 1645): 0.82
Mean Thrip Mortality ([3]; 1.0% CNMA (A), sampling time 1715): 0.78
Mean Thrip Mortality ([3]; 1.0% CNMA (A), sampling time 1845): 0.84
Mean Thrip Mortality ([3]; 1.0% CNMA (A), sampling time 2215): 0.84
% CLUSTERS INFECTED-FIRST DAY (powdery mildew; 0.3% CNMA): 60%
MEAN # OF BERRIES/CLUSTER INFECTED FIRST DAY (powdery mildew; 0.3% CNMA): 3.1
% CLUSTERS INFECTED-SECOND DAY (powdery mildew; 0.3% CNMA): 0.22%
MEAN # OF BERRIES/CLUSTER INFECTED SECOND DAY (powdery mildew; 0.3% CNMA): 0.72
% CLUSTERS INFECTED-FIRST DAY (powdery mildew; 0.6% CNMA): 25%
MEAN # OF BERRIES/CLUSTER INFECTED FIRST DAY (powdery mildew; 0.6% CNMA): 0.5
% CLUSTERS INFECTED-SECOND DAY (powdery mildew; 0.6% CNMA): 0.2%
MEAN # OF BERRIES/CLUSTER INFECTED SECOND DAY (powdery mildew; 0.6% CNMA): 0.25
time control of powdery mildew was maintained (powdery mildew; both treatments, 0.3% and 0.6%): at least three weeks
